According to article PMC9623576, “Semisynthesis and Evaluation of Anti-Inflammatory Activity of the Cassane-Type Diterpenoid Taepeenin F and of Some Synthetic Intermediates” (Journal of Natural Products, 2022):

Assays:
[1] = system: HT29 human colon adenocarcinoma cells; assay: MTT cancer cell proliferation assay, HT29; format: cell-based; conditions: Homo sapiens, HT29, 72 h, MTT; for IC50: HT-29, 72 h, read-out: IC50; for IC80 / IC20: HT-29; for IC20: read-out: IC20
Protocol: The five newly synthesized diterpenoids were evaluated for their cytotoxic effects against three selected tumor cell lines, B16-F10 murine melanoma cells, HT29 human colon adenocarcinoma cells, and HepG2 human hepatocarcinoma cells at increasing concentrations (0–100 μg/mL). After 72 h of treatment, cell viability was determined by an MTT assay, where the tetrazolium dye was transformed into formazan in the mitochondria of viable cells, its absorbance measured at 570 nm and expressed as a percentage with respect to untreated control cells (S3 Figure.). The concentrations required for 20, 50, and for 80% growth inhibition (IC20, IC50, and IC80) were also determined for each compound (Table 2).
(§1) A stock solution was frozen and stored at […]. Before the experiments, this solution was diluted in cell-culture medium to the adequate concentrations for each experiment. […] For nitrite assay, subcytotoxic concentrations (3/4IC50, 1/2IC50, and 1/4IC50), were used to ensure that the NO inhibitory potential was not due to a possible cytotoxic effect. The concentrations of 3/4IC50, 1/2IC50, and 1/4IC50 were used for the cell-cycle analysis. All experiments were measured and compared with control (untreated cells after 24, 48, or 72 h of treatment.)
Human colorectal adenocarcinoma cell line HT29 (ECACC no. 9172201; ATCC no. HTB-38), human hepatocarcinome cell line HepG2 (ECACC no. 85011430), mouse melanoma cells B16-F10 (ATCC no. CRL-6475), and murine monocyte/macrophage-like RAW 264.7 cell line (ATCC no, TIB-71) were cultured in DMEM (Dulbecco’s modified Eagle’s medium) supplemented with 2 mM glutamine, 10% heat-inactivated FCS (fetal calf serum), 10 000 units/mL of penicillin and 10 mg/mL of streptomycin, (for all cancer cell lines), 50 μg/mL of gentamicin (only for RAW 264.7 cell line), and incubated at 37 °C, in an atmosphere of 5% CO2 and 95% humidity. The culture media were changed every 48 h, and the confluent cultures were separated with a trypsin solution (0.25% EDTA). In all experiments, monolayer cells were grown to 80–90% confluence, in sterile cell culture flasks. All cell lines used were purchased from the cell bank of the University of Granada, Spain.
The cytotoxicity assay was performed by the MTT (3-(4,5-dimethylthiazol-2-yl)-2,5-diphenyltetrazolium bromide) method.[21] To quantify the cytotoxicity of compounds, the fresh and suspended cells were seeded in 96-well plates to a volume of 100 μL at 6.0 × 10^3 cells/mL for HT29 and RAW 264.7 cell lines, at 5.0 × 10^3 cells/mL for B16-F10 cells and 15.0 × 10^3 for Hep G2. Then, cells were incubated to adhere over 24 h at 37 °C with 5% CO2. All tested compounds were prepared in fresh growth medium. After 24 h, an additional 100 μL of medium with the corresponding concentrations of products (only medium in the control wells) was added to the corresponding wells, at various final concentrations (0–100 μg/mL). Finally, after 72 h of incubation at 37 °C with 5% CO2, the medium with the compounds were removed and 100 μL of MTT solution (0.5 mg/mL) in 50% of PBS 50% of medium was added to each well. After 1.5 h of incubation, formazan was resuspended in 100 μL of DMSO, and each concentration was tested in triplicate. Relative cell viability, with respect to untreated control cells, was measured by absorbance at 570 nm on an ELISA plate reader (Tecan Sunrise MR20-301, TECAN, Austria).
Cytotoxicity experimental data were fitted to a sigmoidal function (y = ymax/(x/a)^−b) by nonlinear regression. […] These analyses were performed using SigmaPlot 12.5 software. Similar analyses were performed to obtain the IC50 of NO production. All data shown here are representative of at least two independent experiments performed in triplicate. All quantitative data were summarized as the mean ± standard deviation (SD).

[2] = system: RAW 264.7 monocyte/macrophage murine cells; assay: MTT growth inhibition on RAW 264.7 cells; format: cell-based; conditions: Mus musculus, RAW264.7, RAW 264.7, MTT; for IC20: 20% growth inhibition; for IC80: 80% growth inhibition
Protocol: as §1
In all experiments, monolayer cells were grown to 80–90% confluence, in sterile cell culture flasks. All cell lines used were purchased from the cell bank of the University of Granada, Spain.
The cytotoxicity assay was performed by the MTT (3-(4,5-dimethylthiazol-2-yl)-2,5-diphenyltetrazolium bromide) method.[21] […] All tested compounds were prepared in fresh growth medium. After 24 h, an additional 100 μL of medium with the corresponding concentrations of products (only medium in the control wells) was added to the corresponding wells, at various final concentrations (0–100 μg/mL). […] After 1.5 h of incubation, formazan was resuspended in 100 μL of DMSO, and each concentration was tested in triplicate.
Cytotoxicity experimental data were fitted to a sigmoidal function (y = ymax/(x/a)^−b) by nonlinear regression. […] Similar analyses were performed to obtain the IC50 of NO production. All data shown here are representative of at least two independent experiments performed in triplicate. All quantitative data were summarized as the mean ± standard deviation (SD).

Structure (SMILES)	IC50 [1] [µM]	IC80 [1] [µM]	IC20 [1] [µM]	IC50 [2] [µM]	IC20 [2] [µM]	IC80 [2] [µM]
COC(=O)[C@]1(C)CCC[C@]2(C)c3cc(O)c(C=O)c(C)c3CC[C@@H]12 [Compound 21, (1R,4aS,10aR)-Methyl 7-formyl-6-hydroxy-1,4a,8-trimethyl-1,2,3,4,4a,9,10,10a-octahydrophenanthrene-1-carboxylate]	20.1 ± 0.61	30.6 ± 0.81	13.5 ± 0.55	21.1 ± 0.96	17.8 ± 1.34	25.3 ± 0.58
COC(=O)[C@]1(C)CCC[C@@]2(C)[C@H]1CC=C1C(C)=C(C(C)C)C(=O)C[C@@H]12 [Compound 16, (1R,4aR,10aR)-Methyl 7-isopropyl-1,4a,8-trimethyl-6-oxo-1,2,3,4,4a,4b,5,6,10,10a-decahydrophenanthrene-1-carboxylate]	33.4 ± 2.16	55 ± 0.93	21.4 ± 3.09	33.1 ± 3.62	30.1 ± 0.49	33.81 ± 0.08
